Where a name gives a salt, the structure may show the parent alone.
Molecular target: T1, Proton Pump (H^+,K^+-ATPase) (Sus scrofa, UniProt P19156)
T1 construct: gastric vesicles were isolated from porcine stomachs; from tissue; host or cells: porcine stomach (gastric vesicles)
Assay: Inhibitory activity on proton pump (H+,K+-ATPase) activity, porcine gastric vesicles, malachite green readout
Assay type: biochemical
Settings: for IC50: porcine gastric vesicles, pH 6.5, 8 mM KCl, 0.2 mM ATP
Description: Specifically, gastric vesicles were isolated from porcine stomachs, and the protein content of the vesicles was quantified using a BSA kit (Bio-Rad, 5000205). All reactions were performed in 96-well plates with a reaction volume of […] containing 100 ng of vesicles. 10 mM valinomycin and the test compound were added to reaction buffer (50 mM Tris-HEPES, 5 mM MgCl2, 8 mM KCl, pH 6.5) containing porcine gastric vesicles at various concentrations, and the mixture was incubated at 37°C for 30 minutes. DMSO or test compounds at different concentrations were added after diluting them to a final DMSO concentration of 0.1%. 0.2 mM adenosine triphosphate (ATP) was then added to the reaction buffer and incubated at 37°C for 20 minutes. The reaction was stopped with 0.2% Tween 20, followed by the addition of malachite green (Sigma Aldrich, MAK307) and incubation at room temperature for 30 minutes. The optical density (OD) value was measured at 620 nm using a microplate reader (Spectramax M5e, Molecular devices). The percent (%) inhibition was derived from the OD values of the control group and various concentrations of the test compounds. The IC50 of the test compounds was analyzed using nonlinear regression using the GraphPad Prism8 program using the % inhibition value at each concentration.

T1 sequence (P19156 2-1034 limits assumed): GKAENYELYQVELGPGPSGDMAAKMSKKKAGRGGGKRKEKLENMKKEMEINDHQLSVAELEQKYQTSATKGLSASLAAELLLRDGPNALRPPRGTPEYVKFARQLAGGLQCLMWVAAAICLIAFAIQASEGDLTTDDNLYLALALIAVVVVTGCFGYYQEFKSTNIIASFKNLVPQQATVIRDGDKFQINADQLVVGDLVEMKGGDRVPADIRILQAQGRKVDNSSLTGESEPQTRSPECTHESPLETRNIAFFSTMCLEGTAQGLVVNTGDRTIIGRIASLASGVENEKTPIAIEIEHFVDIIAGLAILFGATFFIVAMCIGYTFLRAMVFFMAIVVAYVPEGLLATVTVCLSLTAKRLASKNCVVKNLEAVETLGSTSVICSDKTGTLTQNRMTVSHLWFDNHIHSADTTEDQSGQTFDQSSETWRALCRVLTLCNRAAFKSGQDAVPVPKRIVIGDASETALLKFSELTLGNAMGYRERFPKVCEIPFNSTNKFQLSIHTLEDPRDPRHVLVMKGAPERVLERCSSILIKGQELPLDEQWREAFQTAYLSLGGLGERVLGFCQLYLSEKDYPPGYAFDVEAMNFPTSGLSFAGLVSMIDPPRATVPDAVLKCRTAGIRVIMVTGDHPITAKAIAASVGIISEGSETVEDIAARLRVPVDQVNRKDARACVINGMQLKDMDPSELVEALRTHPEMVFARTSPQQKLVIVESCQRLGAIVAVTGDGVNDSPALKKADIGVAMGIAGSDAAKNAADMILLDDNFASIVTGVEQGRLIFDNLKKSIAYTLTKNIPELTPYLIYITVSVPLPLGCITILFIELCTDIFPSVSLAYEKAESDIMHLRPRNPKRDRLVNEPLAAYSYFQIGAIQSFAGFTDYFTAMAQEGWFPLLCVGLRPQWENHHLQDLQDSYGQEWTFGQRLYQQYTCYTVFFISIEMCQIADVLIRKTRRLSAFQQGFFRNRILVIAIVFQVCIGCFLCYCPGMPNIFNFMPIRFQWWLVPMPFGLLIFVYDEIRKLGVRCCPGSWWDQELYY
T1 sequence (P18434 whole entry partner): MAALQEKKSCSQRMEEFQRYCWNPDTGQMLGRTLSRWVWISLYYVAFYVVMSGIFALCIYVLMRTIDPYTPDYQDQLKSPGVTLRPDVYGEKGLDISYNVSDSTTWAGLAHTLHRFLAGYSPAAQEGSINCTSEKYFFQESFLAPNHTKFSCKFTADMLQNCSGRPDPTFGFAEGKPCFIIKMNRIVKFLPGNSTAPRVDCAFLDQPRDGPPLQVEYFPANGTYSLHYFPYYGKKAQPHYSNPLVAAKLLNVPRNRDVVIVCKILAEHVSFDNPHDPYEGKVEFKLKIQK

| SMILES | IC50 | inhibitory activity against proton pump activity (result in words) |
| --- | --- | --- |
| Cc1cccc(C)c1CNc1cc(NC(=O)NCC2CCOC2)cn2c(C)c(C)nc12 (centres unmarked) [Example 74, 1-(8-((2,6-dimethylbenzyl)amino)-2,3-dimethylimidazo[1,2-a]pyridin-6-yl)-3-((tetrohydrofuran-3-yl)methyl)urea hydrochloride] | 50 to 100 nM | – |
| Cc1cccc(C)c1CNc1cc(NC(=O)[C@@]2(C)CCN2)cn2c(C)c(C)nc12 [Example 75, (R)-N-(8-((2,6-dimethylbenzyl)amino)-2,3-dimethylimidazo[1,2-a]pyridin-6-yl)-2-methylazetidine-2-carboxamide hydrochloride] | 100 to 500 nM | – |
| Cc1cccc(C)c1CNc1cc(NC(=O)C[C@H]2CCN2)cn2c(C)c(C)nc12 [Example 76, (R)-2-(azetidin-2-yl)-N-(8-((2,6-dimethylbenzyl)amino)-2,3-dimethylimidazo[1,2-a]pyridin-6-yl)acetamide hydrochloride] | 50 to 100 nM | – |
| Cc1cccc(C)c1CNc1cc(NC(=O)N2CC(c3ccccc3)C2)cn2c(C)c(C)nc12.O=C(O)CC(O)(CC(=O)O)C(=O)O [Example 77, N-(8-((2,6-dimethylbenzyl)amino)-2,3-dimethylimidazo[1,2-a]pyridin-6-yl)-3-phenylazetidine-1-carboxamide citrate] | < 50 nM | excellent inhibitory properties |
| Cc1cccc(C)c1CNc1cc(NC(=O)N[C@H]2CCc3ccccc32)cn2c(C)c(C)nc12 [Example 78, (S)-1-(2,3-dihydro-1H-inden-1-yl)-3-(8-((2,6-dimethylbenzyl)amino)-2,3-dimethylimidazo[1,2-a]pyridin-6-yl)urea hydrochloride] | 100 to 500 nM | – |
| CNC(=O)N1CC[C@H]1C(=O)Nc1cc(NCc2c(C)cccc2C)c2nc(C)c(C)n2c1 [Example 79, (S)-N2-(8-((2,6-dimethylbenzyl)amino)-2,3-dimethylimidazo[1,2-a]pyridin-6-yl)-N1-methylazetidine-1,2-dicarboxamide] | 100 to 500 nM | – |
| Cc1cccc(C)c1CNc1cc(NC(=O)N[C@@H]2CCc3ccccc32)cn2c(C)c(C)nc12 [Example 80, (R)-1-(2,3-dihydro-1H-inden-1-yl)-3-(8-((2,6-dimethylbenzyl)amino)-2,3-dimethylimidazo[1,2-a]pyridin-6-yl)urea hydrochloride] | > 500 nM | – |
| Cc1cccc(C)c1CNc1cc(NC(=O)CN2CCC2=O)cn2c(C)c(C)nc12 [Example 81, N-(8-((2,6-dimethylbenzyl)amino)-2,3-dimethylimidazo [1,2-a]pyridin-6-yl)-2-(2-oxoazetidin-1-yl)acetamide] | 50 to 100 nM | – |
| Cc1cccc(C)c1CNc1cc(NC(=O)N2CCC(c3ccccc3)CC2)cn2c(C)c(C)nc12 [Example 82, N-(8-((2,6-dimethylbenzyl)amino)-2,3-dimethylimidazo[1,2-a]pyridin-6-yl)-4-phenylpiperidine-1-carboxamide] | 100 to 500 nM | – |
| Cc1cccc(C)c1CNc1cc(NC(=O)N2CCCC(c3ccccc3)C2)cn2c(C)c(C)nc12 (centres unmarked) [Example 83, N-(8-((2,6-dimethylbenzyll)amino)-2,3-dimethylimidazo[1,2-a]pyridin-6-yl)-3-phenylpiperidine-1-carboxamide] | 100 to 500 nM | – |
| Cc1cccc(C)c1CNc1cc(NC(=O)N2CCC(c3ccccc3)C2)cn2c(C)c(C)nc12 (centres unmarked) [Example 84, N-(8-((2,6-dimethylbenzyl)amino)-2,3-dimethylimidazo[1,2-a]pyridin-6-yl)-3-phenylpyrrolidine-1-carboxamide] | 100 to 500 nM | – |
| Cc1cccc(C)c1CNc1cc(NC(=O)[C@H]2CNCCN2)cn2c(C)c(C)nc12 [Example 85, (R)-N-(8-((2,6-dimethylbenzyl)amino)-2,3-dimethylimidazo[1,2-a]pyridin-6-yl)piperazine-2-carboxamide hydrochloride] | 100 to 500 nM | – |
| Cc1cccc(C)c1CNc1cc(NC(=O)N(C)CCN)cn2c(C)c(C)nc12 [Example 87, 1-(2-aminoethyl)-3-(8-((2,6-dimethylbenzyl)amino)-2,3-dimethylimidazo[1,2-a]pyridin-6-yl)-1-methylurea hydrochloride] | < 50 nM | – |
| Cc1cccc(C)c1CNc1cc(NC(=O)NCCO)cn2c(C)c(C)nc12 [Example 88, 1-(8-((2,6-dimethylbenzyl)amino)-2,3-dimethylimidazo[1,2-a]pyridin-6-yl)-3-(2-hydroxyethyl)urea citrate] | < 50 nM | – |
| Cc1cccc(C)c1CNc1cc(NC(=O)[C@@H]2CCNC2)cn2c(C)c(C)nc12 [Example 89, (R)-N-(8-((2,6-dimethylbenzyl)amino)-2,3-dimethylimidazo[1,2-a]pyridin-6-yl)pyrrolidine-3-carboxamide hydrochloride] | 50 to 100 nM | – |
| Cc1cccc(C)c1CNc1cc(NC(=O)[C@H]2CCCCN2)cn2c(C)c(C)nc12 [Example 90, (R)-N-(8-((2,6-dimethylbenzyl)amino)-2,3-dimethylimidazo[1,2-a]pyridin-6-yl)piperidine-2-carboxamide hydrochloride] | 50 to 100 nM | – |

| SMILES | IC50 | inhibitory activity against proton pump activity (result in words) |
| --- | --- | --- |
| Cc1cccc(C)c1CNc1cc(NC(=O)C[C@H]2CCCN2)cn2c(C)c(C)nc12 [Example 91, (R)-N-(8-((2,6-dimethylbenzyl)amino)-2,3-dimethylimidazo[1,2-a]pyridin-6-yl)-2-(pyrrolidin-2-yl)acetamide hydrochloride] | 50 to 100 nM | – |
| Cc1cccc(C)c1CNc1cc(NC(C)C)cn2c(C)c(C)nc12 [Example 92, N^8-(2,6-dimethylbenzyl)-N^6-isopropyl-2,3-dimethylimidazo [1,2-a] pyridine-6,8-diamine] | > 500 nM | – |
| Cc1cccc(C)c1CNc1cc(NC(=O)C[C@@H]2CCCN2)cn2c(C)c(C)nc12 [Example 93, (S)-N-(8-((2,6-dimethylbenzyl)amino)-2,3-dimethylimidazo[1,2-a]pyridin-6-yl)-2-(pyrrolidin-2-yl)acetamide hydrochloride] | < 50 nM | – |
| Cc1cccc(C)c1CNc1cc(NC(=O)[C@@H]2CNCCN2)cn2c(C)c(C)nc12 [Example 94, (S)-N-(8-((2,6-dimethylbenzyl)amino)-2,3-dimethylimidazo[1,2-a]pyridin-6-yl)piperazine-2-carboxamide hydrochloride] | < 50 nM | – |
| Cc1cccc(C)c1CNc1cc(NC(=O)CNC(=O)CO)cn2c(C)c(C)nc12 [Example 95, N-(8-((2,6-dimethylbenzyl)amino)-2,3-dimethylimidazo[1,2-a]pyridin-6-yl)-2-(2-hydroxyacetamido)acetamide] | < 50 nM | – |
| Cc1cccc(C)c1CNc1cc(NC(=O)[C@H](C)O)cn2c(C)c(C)nc12 [Example 96, (S)-N-(8-((2,6-dimethylbenzyl)amino)-2,3-dimethylimidazo[1,2-a]pyridin-6-yl)-2-hydroxypropanamide citrate] | 100 to 500 nM | – |
| Cc1cccc(C)c1CNc1cc(NC(=O)[C@@H](C)O)cn2c(C)c(C)nc12 [Example 97, (R)-N-(8-((2,6-dimethylbenzyl)amino)-2,3-dimethylimidazo[1,2-a]pyridin-6-yl)-2-hydroxypropanamide citrate] | 50 to 100 nM | – |
| CNCC(=O)Nc1cc(NCc2c(C)cccc2C)c2nc(C)c(C)n2c1 [Example 98, N-(8-((2,6-dimethylbenzyl)amino)-2,3-dimethylimidazo[1,2-a]pyridin-6-yl)-2-(methylamino)acetamide hydrochloride] | 50 to 100 nM | – |
| Cc1cccc(C)c1CNc1cc(NC(=O)CCN)cn2c(C)c(C)nc12 [Example 99, 3-amino-N-(8-((2,6-dimethylbenzyl)amino)-2,3-dimethylimidazo[1,2-a]pyridin-6-yl)propanamide hydrochloride] | 50 to 100 nM | – |
| Cc1cccc(C)c1CNc1cc(NC(=O)N2CCNCC2)cn2c(C)c(C)nc12 [Example 103, N-(8-((2,6-dimethylbenzyl)amino)-2,3-dimethylimidazo[1,2-a]pyridin-6-yl)piperazine-1-carboxamide hydrochloride] | 100 to 500 nM | – |
| Cc1cccc(C)c1CNc1cc(NC(=O)c2ccccc2)cn2c(C)c(C)nc12 [Example 104, N-(8-((2,6-dimethylbenzyl)amino)-2,3-dimethylimidazo[1,2-a]pyridin-6-yl)benzamide citrate] | 100 to 500 nM | – |
| Cc1cccc(C)c1CNc1cc(NC(=O)[C@H]2CCNC2)cn2c(C)c(C)nc12 [Example 105, (S)-N-(8-((2,6-dimethylbenzyl)amino)-2,3-dimethylimidazo[1,2-a]pyridin-6-yl)pyrrolidine-3-carboxamide hydrochloride] | 100 to 500 nM | – |
| Cc1cccc(C)c1CNc1cc(NC(=O)[C@@H]2CCCCN2)cn2c(C)c(C)nc12 [Example 106, (S)-N-(8-((2,6-dimethylbenzyl)amino)-2,3-dimethylimidazo[1,2-a]pyridin-6-yl)piperidine-2-carboxamide hydrochloride] | 100 to 500 nM | – |
| CC(=O)Oc1ccc(/C=C/C(=O)Nc2cc(NCc3c(C)cccc3C)c3nc(C)c(C)n3c2)cc1 [Example 107, (E)-4-(3-((8-((2,6-dimethylbenzyl)amino)-2,3-dimethylimidazo[1,2-a]pyridin-6-yl)amino)-3-oxoprop-1-en-1-yl)phenyl acetate] | > 500 nM | – |
| COc1cc(/C=C/C(=O)Nc2cc(NCc3c(C)cccc3C)c3nc(C)c(C)n3c2)ccc1OC(C)=O [Example 108, (E)-4-(3-((8-((2,6-dimethylbenzyl)amino)-2,3-dimethylimidazo[1,2-a]pyridin-6-yl)amino)-3-oxoprop-1-en-1-yl)-2-methoxyphenyl acetate] | > 500 nM | – |
